Measurements from paper PMC3179850 (Bioorganic & medicinal chemistry letters, 2009).

Experiments:
HIV-1MDR/JSL (R5) = assay: microbe, parasite or virus in culture; format: cell-based
HIV-1 protease = HIV-1 protease (Human immunodeficiency virus type 1 group M subtype B, UniProt P04585); assay: HIV-1 protease enzyme inhibitory assay; format: biochemical
HIV-1MDR/C (X4) = format: cell-based
HIV-1MDR/G (X4) = format: cell-based
HIV-1MDR/TM (X4) = format: cell-based
HIV-1MDR/MM (R5) = format: cell-based

How did the IC50 (HIV-1MDR/JSL (R5); Human immunodeficiency virus 1) turn out when `CC(C)CN(C[C@@H](O)[C@H](Cc1ccccc1)NC(=O)O[C@H]1CCOC1)S(=O)(=O)c1ccc(N)cc1` [APV, Amprenavir, reference compound] was run?
Its IC50 is 531 ± 69 nM.

With `Cc1ccccc1CNC(=O)[C@H]1N(C(=O)[C@@H](O)[C@H](Cc2ccccc2)NC(=O)O[C@H]2CO[C@H]3OCC[C@H]32)CSC1(C)C` [Inhibitor 3b] as the compound, how does the potency enhancement (HIV-1 protease; with respect to 3a, enzyme inhibition) read?
Its potency enhancement is “over 40 fold”.

And the potency over amprenavir (HIV-1MDR/C (X4))?
The potency over amprenavir was at least 5 fold.

And the potency over amprenavir (HIV-1MDR/G (X4))?
Its potency over amprenavir is at least 5 fold.

What about the potency over amprenavir (HIV-1MDR/TM (X4)) of the same compound?
The potency over amprenavir was at least 5 fold.

What about the potency over amprenavir (HIV-1MDR/MM (R5)) of the same compound?
The potency over amprenavir was at least 5 fold.

And the potency over amprenavir (HIV-1MDR/JSL (R5); HIV-1MDR/JSL)?
Its potency over amprenavir is “over 2 fold”.

`Cc1ccccc1CNC(=O)[C@H]1N(C[C@@H](O)[C@H](Cc2ccccc2)NC(=O)O[C@H]2CCOC2)CSC1(C)C` [Inhibitor 14a] was tested. Which “reduction in enzyme inhibitory activity” value (HIV-1 protease; relative to corresponding inhibitor 3a) did it give?
The value was “over 400 fold”.

Which “enzyme inhibitory activity (in words)” value (HIV-1 protease) does the source give for `Cc1cc(CO)ccc1CNC(=O)[C@H]1N(C(=O)[C@@H](O)[C@H](Cc2ccccc2)NC(=O)O[C@H]2CO[C@H]3OCC[C@H]32)CSC1(C)C` [Inhibitor 16c] here?
The value was “sub-nanomolar”.
